Legend:
[1] = tested on: Sinapis alba, Echinochloa crus-galli, Lolium multiflorum, Chrysanthemum segetum, Setaria viridis, Abutilon theophrasti, Amaranthus retroflexus, Panicum …; assay: Post-emergence action against weeds (greenhouse pot test, visual scoring); type: in vivo, monocotyledonous and dicotyledonous weeds; conditions: herbicide/safener combination, above all with safeners II-1, II-9, III-1, b-11, b-14, IX-A3; post-emergence method, three-leaf stage; 500 g or less of herbicide (A) per hectare; three to four weeks
Experimental: Seeds or rhizome pieces of monocotyledonous and dicotyledonous weeds were placed into sandy loam soil in plastic pots, covered with soil and grown in a greenhouse under good growth conditions. Three weeks after sowing, the test plants were treated at the three-leaf stage. The compounds according to the invention, formulated as wettable powders or as emulsion concentrates, were sprayed onto the green parts of the plants at various dosages using a water application rate of 300 to 800 l/ha (converted). The test plants were stood in the greenhouse under optimum growth conditions for about three to four weeks, and the action of the preparations was then scored visually in comparison to untreated controls. Post-emergence, too, the herbicide/safener combinations according to the invention have good herbicidal activity against a broad spectrum of economically important weed grasses and broad-leaved weeds.

[2] = tested on: Sinapis alba, Chrysanthemum segetum, Avena sativa, Stellaria media, Echinochloa crus-galli, Lolium multiflorum, Setaria viridis, Abutilon theophrasti …; assay: Pre-emergence action against weeds (greenhouse pot test, optical scoring); type: in vivo, monocotyledonous and dicotyledonous weed plants; conditions: herbicide/safener combination, above all with safeners II-1, II-9, III-1, b-11, b-14, IX-A3; pre-emergence method; 500 g or less of herbicide (A) per hectare; 3 to 4 weeks
Source text: Seeds or rhizome pieces of monocotyledonous and dicotyledonous weed plants were placed in sandy loam soil in cardboard pots and covered with soil. The active compounds (A) and (B), formulated in the form of wettable powders or emulsion concentrates, were then applied to the surface of the covering soil in various dosages as aqueous suspensions or emulsions using a water application rate of 300 to 800 l/ha (converted).
After the treatment, the pots were placed in a greenhouse and kept under good growth conditions for the weeds. Optical scoring of the damage to the plants or emerged plants was carried out after emergence of the test plants after a trial period of 3 to 4 weeks, in comparison to untreated controls. As shown by the results, the tested herbicide/safener combinations have good herbicidal pre-emergence activity against a broad spectrum of weed grasses and broad-leaved weeds.

[3] = tested on: cotton, oilseed rape, sugar beet and Gramineae crops such as barley, wheat, rye, millet, corn or rice; assay: Compatibility with crop plants (greenhouse, visual scoring); type: in vivo; conditions: herbicide/safener combination, above all with safeners II-1, II-9, III-1, b-11, b-14, IX-A3; pre-emergence method or post-emergence method; four to five weeks after application
Source text: In further greenhouse trials, seeds of a relatively large number of crop plants and weeds were placed into sandy loam soil and covered with soil. Some of the pots were immediately treated as described in Section 1, the others were placed in a greenhouse until the plants had developed two to three true leaves and were then sprayed with various dosages of the herbicide/safener combinations according to the invention, as described in Section 2.

CC1(C)CC(S(=O)(=O)C(Cl)c2ccccc2)=NO1 (stereo not drawn) [I-1.1]
herbicidal activity against harmful plants (visual scoring vs untreated controls) [1]: very good herbicidal activity | herbicidal activity against harmful plants (optical scoring of damage vs untreated controls) [2]: very good herbicidal activity | damage to crop plants (visual scoring) [3]: did not cause any damage

CC1(C)CC(S(=O)(=O)C(Cl)c2cc(F)ccc2F)=NO1 (stereo not drawn) [I-2.1]
herbicidal activity against harmful plants (visual scoring vs untreated controls) [1]: very good herbicidal activity | herbicidal activity against harmful plants (optical scoring of damage vs untreated controls) [2]: very good herbicidal activity | damage to crop plants (visual scoring) [3]: did not cause any damage

CCC1(C)CC(S(=O)(=O)C(Cl)c2cc(F)ccc2F)=NO1 (stereo not drawn) [I-2.2]
herbicidal activity against harmful plants (visual scoring vs untreated controls) [1]: very good herbicidal activity | herbicidal activity against harmful plants (optical scoring of damage vs untreated controls) [2]: very good herbicidal activity | damage to crop plants (visual scoring) [3]: did not cause any damage

CC1(C)CC(S(=O)(=O)C(Cl)c2c(F)cccc2F)=NO1 (stereo not drawn) [I-3.1]
herbicidal activity against harmful plants (visual scoring vs untreated controls) [1]: very good herbicidal activity | herbicidal activity against harmful plants (optical scoring of damage vs untreated controls) [2]: very good herbicidal activity | damage to crop plants (visual scoring) [3]: did not cause any damage

CCC1(C)CC(S(=O)(=O)C(Cl)c2c(F)cccc2F)=NO1 (stereo not drawn) [I-3.2]
herbicidal activity against harmful plants (visual scoring vs untreated controls) [1]: very good herbicidal activity | herbicidal activity against harmful plants (optical scoring of damage vs untreated controls) [2]: very good herbicidal activity | damage to crop plants (visual scoring) [3]: did not cause any damage

CC1(C)CC(S(=O)(=O)C(Cl)c2cc(C(F)(F)F)ccc2F)=NO1 (stereo not drawn) [I-4.1]
herbicidal activity against harmful plants (visual scoring vs untreated controls) [1]: very good herbicidal activity | herbicidal activity against harmful plants (optical scoring of damage vs untreated controls) [2]: very good herbicidal activity | damage to crop plants (visual scoring) [3]: did not cause any damage

CC1(C)CC(S(=O)(=O)C(Cl)c2c(F)cccc2Cl)=NO1 (stereo not drawn) [I-5.1]
herbicidal activity against harmful plants (visual scoring vs untreated controls) [1]: very good herbicidal activity | herbicidal activity against harmful plants (optical scoring of damage vs untreated controls) [2]: very good herbicidal activity | damage to crop plants (visual scoring) [3]: did not cause any damage

CC1(C)CC(S(=O)(=O)C(Cl)c2ccccc2Cl)=NO1 (stereo not drawn) [I-6.1]
herbicidal activity against harmful plants (visual scoring vs untreated controls) [1]: very good herbicidal activity | herbicidal activity against harmful plants (optical scoring of damage vs untreated controls) [2]: very good herbicidal activity | damage to crop plants (visual scoring) [3]: did not cause any damage

CC1(C)CC(S(=O)(=O)C(Cl)c2ccccc2OC(F)(F)F)=NO1 (stereo not drawn) [I-10.1]
herbicidal activity against harmful plants (visual scoring vs untreated controls) [1]: very good herbicidal activity | herbicidal activity against harmful plants (optical scoring of damage vs untreated controls) [2]: very good herbicidal activity | damage to crop plants (visual scoring) [3]: did not cause any damage

CCC1(C)CC(S(=O)(=O)C(Cl)c2cc(C(F)(F)F)ccc2Cl)=NO1 (stereo not drawn) [I-98.2]
herbicidal activity against harmful plants (visual scoring vs untreated controls) [1]: very good herbicidal activity | herbicidal activity against harmful plants (optical scoring of damage vs untreated controls) [2]: very good herbicidal activity | damage to crop plants (visual scoring) [3]: did not cause any damage

CC1(C)CC(S(=O)(=O)C(Cl)c2c(Cl)cccc2Cl)=NO1 (stereo not drawn) [I-109.1]
herbicidal activity against harmful plants (visual scoring vs untreated controls) [1]: very good herbicidal activity | herbicidal activity against harmful plants (optical scoring of damage vs untreated controls) [2]: very good herbicidal activity | damage to crop plants (visual scoring) [3]: did not cause any damage

CC1(C)CC(S(=O)(=O)C(Cl)c2c(F)cccc2C(F)(F)F)=NO1 (stereo not drawn) [I-117.1]
herbicidal activity against harmful plants (visual scoring vs untreated controls) [1]: very good herbicidal activity | herbicidal activity against harmful plants (optical scoring of damage vs untreated controls) [2]: very good herbicidal activity | damage to crop plants (visual scoring) [3]: did not cause any damage

CC1(C)CC(S(=O)(=O)C(Cl)c2cc(F)cc(F)c2F)=NO1 (stereo not drawn) [I-129.1]
herbicidal activity against harmful plants (visual scoring vs untreated controls) [1]: very good herbicidal activity | herbicidal activity against harmful plants (optical scoring of damage vs untreated controls) [2]: very good herbicidal activity | damage to crop plants (visual scoring) [3]: did not cause any damage

Cn1nc(C(F)(F)F)c(C(Cl)S(=O)(=O)C2=NOC(C)(C)C2)c1OC(F)F (stereo not drawn) [I-206.1]
herbicidal activity against harmful plants (visual scoring vs untreated controls) [1]: very good herbicidal activity | herbicidal activity against harmful plants (optical scoring of damage vs untreated controls) [2]: very good herbicidal activity | damage to crop plants (visual scoring) [3]: did not cause any damage

Cn1nc(C(F)(F)F)c(C(Cl)S(=O)(=O)C2=NOC(C)(C)C2)c1Cl (stereo not drawn) [I-216.1]
herbicidal activity against harmful plants (visual scoring vs untreated controls) [1]: very good herbicidal activity | herbicidal activity against harmful plants (optical scoring of damage vs untreated controls) [2]: very good herbicidal activity | damage to crop plants (visual scoring) [3]: did not cause any damage

CCC1(C)CC(S(=O)(=O)C(Cl)c2c(C(F)(F)F)nn(C)c2Cl)=NO1 (stereo not drawn) [I-216.2]
herbicidal activity against harmful plants (visual scoring vs untreated controls) [1]: very good herbicidal activity | herbicidal activity against harmful plants (optical scoring of damage vs untreated controls) [2]: very good herbicidal activity | damage to crop plants (visual scoring) [3]: did not cause any damage

CC1(C)CC(S(=O)(=O)C(F)c2cc(F)ccc2F)=NO1 (stereo not drawn) [I-249.1]
herbicidal activity against harmful plants (visual scoring vs untreated controls) [1]: very good herbicidal activity | herbicidal activity against harmful plants (optical scoring of damage vs untreated controls) [2]: very good herbicidal activity | damage to crop plants (visual scoring) [3]: did not cause any damage

CC1(C)CC(S(=O)(=O)C(F)c2c(F)cccc2F)=NO1 (stereo not drawn) [I-250.1]
herbicidal activity against harmful plants (visual scoring vs untreated controls) [1]: very good herbicidal activity | herbicidal activity against harmful plants (optical scoring of damage vs untreated controls) [2]: very good herbicidal activity | damage to crop plants (visual scoring) [3]: did not cause any damage

Cn1nc(C(F)(F)F)c(C(F)S(=O)(=O)C2=NOC(C)(C)C2)c1OC(F)F (stereo not drawn) [I-260.1]
herbicidal activity against harmful plants (visual scoring vs untreated controls) [1]: very good herbicidal activity | herbicidal activity against harmful plants (optical scoring of damage vs untreated controls) [2]: very good herbicidal activity | damage to crop plants (visual scoring) [3]: did not cause any damage

Cn1nc(C(F)(F)F)c(C(Br)S(=O)(=O)C2=NOC(C)(C)C2)c1OC(F)F (stereo not drawn) [I-275.1]
herbicidal activity against harmful plants (visual scoring vs untreated controls) [1]: very good herbicidal activity | herbicidal activity against harmful plants (optical scoring of damage vs untreated controls) [2]: very good herbicidal activity | damage to crop plants (visual scoring) [3]: did not cause any damage

Cn1nc(C(F)(F)F)c(C(Cl)[S+]([O-])C2=NOC(C)(C)C2)c1OC(F)F (stereo not drawn) [I-289.1]
herbicidal activity against harmful plants (visual scoring vs untreated controls) [1]: very good herbicidal activity | herbicidal activity against harmful plants (optical scoring of damage vs untreated controls) [2]: very good herbicidal activity | damage to crop plants (visual scoring) [3]: did not cause any damage

Source: patent US20070015661A1, “Herbicide/safener combination” (Bayer CropScience GmbH, priority 2005, published 2007)
